{"source": "ChEMBL document CHEMBL1201862", "about": "“PubChem BioAssay data set” (2004)", "key": {"[1]": {"target": "Cytochrome P450 2D6 (Homo sapiens, UniProt P10635)", "sequence (P10635 whole entry)": "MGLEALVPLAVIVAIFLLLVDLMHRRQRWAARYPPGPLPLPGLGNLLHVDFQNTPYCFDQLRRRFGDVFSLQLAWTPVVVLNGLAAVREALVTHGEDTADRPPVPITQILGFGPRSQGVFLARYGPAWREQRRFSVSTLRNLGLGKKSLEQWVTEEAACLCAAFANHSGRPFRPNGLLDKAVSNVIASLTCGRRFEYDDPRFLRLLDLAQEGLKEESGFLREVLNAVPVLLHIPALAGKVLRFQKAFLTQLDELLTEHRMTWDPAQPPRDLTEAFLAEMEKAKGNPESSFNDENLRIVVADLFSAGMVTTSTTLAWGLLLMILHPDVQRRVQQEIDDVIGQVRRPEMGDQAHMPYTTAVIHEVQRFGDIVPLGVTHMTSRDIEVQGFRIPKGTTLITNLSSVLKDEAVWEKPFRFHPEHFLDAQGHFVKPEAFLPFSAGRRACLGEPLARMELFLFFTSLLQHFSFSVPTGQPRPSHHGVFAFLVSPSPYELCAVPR", "experiment": "qHTS Assay for Inhibitors and Substrates of Cytochrome P450 2D6. [Related pubchem assays: 410 ]", "assay_type": "ADME", "settings": "read-out: Potency"}, "[2]": {"target": "Glyceraldehyde-3-phosphate dehydrogenase (Homo sapiens, UniProt P04406)", "sequence (P04406 whole entry)": "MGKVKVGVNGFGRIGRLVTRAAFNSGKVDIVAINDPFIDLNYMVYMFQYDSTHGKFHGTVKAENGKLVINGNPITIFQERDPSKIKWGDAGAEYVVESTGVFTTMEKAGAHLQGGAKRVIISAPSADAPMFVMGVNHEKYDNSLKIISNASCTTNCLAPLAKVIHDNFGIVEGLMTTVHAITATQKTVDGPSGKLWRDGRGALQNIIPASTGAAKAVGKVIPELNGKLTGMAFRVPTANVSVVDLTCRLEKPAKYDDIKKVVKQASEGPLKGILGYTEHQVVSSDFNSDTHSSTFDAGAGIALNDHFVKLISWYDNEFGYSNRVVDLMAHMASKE"}, "[3]": {"target": "T1, Bcl-2-related protein A1 (Mus musculus, UniProt Q07440)", "T1 sequence (Q07440 whole entry)": "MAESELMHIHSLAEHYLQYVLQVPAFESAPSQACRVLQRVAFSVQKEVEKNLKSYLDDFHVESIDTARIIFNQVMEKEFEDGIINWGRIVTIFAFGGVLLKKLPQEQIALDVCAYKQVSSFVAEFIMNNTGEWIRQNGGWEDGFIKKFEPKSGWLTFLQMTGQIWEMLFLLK", "experiment": "small-molecule antagonists of Bfl-1/BH3 interaction – biochemical, TR-FRET, mouse Bfl-1, confirmation (AID 621);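 note: TR-FRET binding of GST-Bfl-1 to FITC-labelled Bid peptide via terbium antibody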"}, "[4]": {"target": "T1, Bcl-2-related protein A1", "experiment": "Bfl-1 binding inhibitors, SAR follow-up, biochemical, fluorescence polarization (AID 1070)"}, "[5]": {"target": "T2, Mucolipin-3 (Homo sapiens, UniProt Q8TDD5)", "T2 sequence (Q8TDD5 whole entry)": "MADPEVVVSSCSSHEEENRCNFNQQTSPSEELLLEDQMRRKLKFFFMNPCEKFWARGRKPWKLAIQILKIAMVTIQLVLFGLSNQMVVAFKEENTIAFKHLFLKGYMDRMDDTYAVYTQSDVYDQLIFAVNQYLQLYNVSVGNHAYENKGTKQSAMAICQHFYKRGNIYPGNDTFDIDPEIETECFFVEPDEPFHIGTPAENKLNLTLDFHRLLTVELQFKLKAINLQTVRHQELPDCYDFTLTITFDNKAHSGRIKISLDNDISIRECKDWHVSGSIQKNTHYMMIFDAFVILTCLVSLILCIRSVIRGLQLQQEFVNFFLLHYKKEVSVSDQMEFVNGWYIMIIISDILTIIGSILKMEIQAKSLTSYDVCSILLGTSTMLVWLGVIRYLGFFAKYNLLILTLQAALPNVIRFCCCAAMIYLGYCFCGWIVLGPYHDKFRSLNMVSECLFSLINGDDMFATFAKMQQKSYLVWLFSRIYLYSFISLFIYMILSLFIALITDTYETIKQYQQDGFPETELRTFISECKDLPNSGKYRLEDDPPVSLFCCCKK", "experiment": "Dose response cell-based high-throughput screening assay for agonists of the transient receptor potential channel ML3 (TRPML3). [Related pubchem assays: 1526, 1424, 1448 ]", "assay_type": "functional"}, "[6]": {"target": "Ion channel NompC (Danio rerio, UniProt Q7T1G6)", "sequence (Q7T1G6 whole entry)": "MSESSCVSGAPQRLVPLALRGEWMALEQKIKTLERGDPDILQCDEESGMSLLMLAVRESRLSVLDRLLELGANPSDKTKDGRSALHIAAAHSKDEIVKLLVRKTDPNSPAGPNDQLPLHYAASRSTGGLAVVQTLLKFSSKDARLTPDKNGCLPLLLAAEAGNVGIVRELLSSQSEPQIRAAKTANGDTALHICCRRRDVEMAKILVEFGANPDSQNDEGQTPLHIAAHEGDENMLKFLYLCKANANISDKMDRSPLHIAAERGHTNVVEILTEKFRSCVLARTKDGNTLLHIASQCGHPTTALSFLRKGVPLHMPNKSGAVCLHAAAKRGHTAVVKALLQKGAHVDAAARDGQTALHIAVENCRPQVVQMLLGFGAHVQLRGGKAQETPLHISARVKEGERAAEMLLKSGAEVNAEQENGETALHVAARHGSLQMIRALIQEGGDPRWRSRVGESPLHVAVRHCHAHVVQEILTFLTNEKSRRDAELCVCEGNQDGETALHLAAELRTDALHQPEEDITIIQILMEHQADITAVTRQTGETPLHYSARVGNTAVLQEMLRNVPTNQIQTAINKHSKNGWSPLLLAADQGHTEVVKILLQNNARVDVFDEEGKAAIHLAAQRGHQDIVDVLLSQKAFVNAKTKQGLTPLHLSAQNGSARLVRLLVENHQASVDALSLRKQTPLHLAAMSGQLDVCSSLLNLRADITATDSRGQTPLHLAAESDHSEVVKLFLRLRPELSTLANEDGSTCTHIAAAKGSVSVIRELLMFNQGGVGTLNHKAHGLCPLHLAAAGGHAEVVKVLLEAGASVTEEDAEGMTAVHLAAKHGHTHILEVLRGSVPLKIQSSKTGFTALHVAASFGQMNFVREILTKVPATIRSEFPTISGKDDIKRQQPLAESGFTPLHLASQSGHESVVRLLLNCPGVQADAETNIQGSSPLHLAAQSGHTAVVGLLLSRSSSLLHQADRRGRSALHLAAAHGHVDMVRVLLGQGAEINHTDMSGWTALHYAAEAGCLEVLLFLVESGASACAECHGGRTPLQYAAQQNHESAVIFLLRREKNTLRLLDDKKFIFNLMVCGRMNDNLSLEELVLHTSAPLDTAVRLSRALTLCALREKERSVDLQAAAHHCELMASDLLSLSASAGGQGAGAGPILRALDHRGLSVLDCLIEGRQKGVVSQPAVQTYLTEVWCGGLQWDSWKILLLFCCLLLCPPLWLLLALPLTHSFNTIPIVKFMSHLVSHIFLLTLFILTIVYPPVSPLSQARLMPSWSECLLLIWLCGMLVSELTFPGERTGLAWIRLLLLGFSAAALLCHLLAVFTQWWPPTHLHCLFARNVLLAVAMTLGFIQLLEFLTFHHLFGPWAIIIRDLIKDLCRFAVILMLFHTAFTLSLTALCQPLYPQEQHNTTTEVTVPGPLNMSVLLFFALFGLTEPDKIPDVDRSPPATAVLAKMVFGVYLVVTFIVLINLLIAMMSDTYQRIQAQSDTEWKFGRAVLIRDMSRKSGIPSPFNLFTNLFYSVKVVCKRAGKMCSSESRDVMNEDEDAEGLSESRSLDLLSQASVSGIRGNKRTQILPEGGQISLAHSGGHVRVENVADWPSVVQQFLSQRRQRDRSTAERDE", "experiment": "Fluorescence counterscreen assay for TRPML3 agonists: dose response cell-based high-throughput screening assay to identify agonists of the transient receptor potential channel N1 (TRPN1). [Related pubchem assays: 1526, 1424, 1448 ]", "assay_type": "functional"}, "[7]": {"experiment": "Trypanosoma cruzi growth suppression in host cells – NIH3T3 host cells, beta-gal luminescence, confirmation (AID 2044);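 note: intracellular parasites grown in NIH/3T3 mouse fibroblasts as host cells; luminescent beta-galactosidase reporter signal from transgenic T. cruzi replicating inside host cells; inhibitors lower the luminescence signal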", "assay_type": "functional, cell-based"}, "[8]": {"experiment": "NIH3T3 cell viability loss – ATP luminescence, mouse fibroblasts, counter-screen, dose response (AID 2010);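 note: cells exposed to compound for about 90 hours before reading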", "assay_type": "functional, cell-based"}, "[9]": {"target": "T3, Epstein-Barr nuclear antigen 1 (Epstein-Barr virus (strain B95-8) (HHV-4) (Human herpesvirus 4), UniProt P03211)", "T3 sequence (P03211 whole entry)": "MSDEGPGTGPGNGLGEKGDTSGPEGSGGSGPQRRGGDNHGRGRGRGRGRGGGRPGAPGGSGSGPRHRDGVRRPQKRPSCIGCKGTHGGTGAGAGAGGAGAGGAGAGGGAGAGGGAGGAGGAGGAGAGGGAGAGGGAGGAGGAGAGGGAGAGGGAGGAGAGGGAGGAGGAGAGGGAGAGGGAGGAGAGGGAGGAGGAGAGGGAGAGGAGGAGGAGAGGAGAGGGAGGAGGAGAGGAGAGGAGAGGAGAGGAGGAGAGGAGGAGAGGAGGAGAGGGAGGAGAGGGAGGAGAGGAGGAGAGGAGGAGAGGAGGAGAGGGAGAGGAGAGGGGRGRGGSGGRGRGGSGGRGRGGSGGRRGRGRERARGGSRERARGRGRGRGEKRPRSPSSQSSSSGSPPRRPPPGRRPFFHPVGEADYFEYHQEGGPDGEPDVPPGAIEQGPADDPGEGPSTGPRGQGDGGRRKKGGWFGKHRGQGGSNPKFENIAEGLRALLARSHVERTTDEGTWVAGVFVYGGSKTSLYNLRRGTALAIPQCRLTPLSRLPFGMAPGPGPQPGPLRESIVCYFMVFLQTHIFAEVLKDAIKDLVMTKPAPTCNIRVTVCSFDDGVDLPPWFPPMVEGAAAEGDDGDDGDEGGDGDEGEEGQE", "experiment": "inhibition of EBV nuclear antigen 1 DNA binding – biochemical, fluorescence polarization, 1536-well, dose response (AID 2381);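 note: fluorescence polarization of a Cy5 DNA probe bound by EBNA-1 protein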", "set-up": "species or system human gammaherpesvirus 4"}, "[10]": {"target": "T4, Lytic switch protein BZLF1 (Epstein-Barr virus (strain B95-8) (HHV-4) (Human herpesvirus 4), UniProt P03206)", "T4 sequence (P03206 whole entry)": "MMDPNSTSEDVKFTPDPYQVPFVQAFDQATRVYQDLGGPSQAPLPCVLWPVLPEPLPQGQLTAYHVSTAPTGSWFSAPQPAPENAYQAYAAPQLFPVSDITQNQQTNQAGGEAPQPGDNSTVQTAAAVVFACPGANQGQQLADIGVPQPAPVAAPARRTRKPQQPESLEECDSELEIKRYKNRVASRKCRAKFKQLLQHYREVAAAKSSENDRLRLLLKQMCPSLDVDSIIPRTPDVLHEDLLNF", "experiment": "inhibition of BZLF1 ZTA DNA binding – biochemical, fluorescence polarization, Epstein-Barr virus, 1536-well, counter-screen for EBNA-1 inhibitor project, dose response (AID 2377);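 note: fluorescence polarization of Cy5-labelled ZRE DNA probe bound by purified Zta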", "set-up": "species or system human gammaherpesvirus 4"}, "[11]": {"target": "T5, Replicative DNA helicase DnaB (Mycobacterium tuberculosis, UniProt P9WMR3)", "T5 sequence (P9WMR3 whole entry)": "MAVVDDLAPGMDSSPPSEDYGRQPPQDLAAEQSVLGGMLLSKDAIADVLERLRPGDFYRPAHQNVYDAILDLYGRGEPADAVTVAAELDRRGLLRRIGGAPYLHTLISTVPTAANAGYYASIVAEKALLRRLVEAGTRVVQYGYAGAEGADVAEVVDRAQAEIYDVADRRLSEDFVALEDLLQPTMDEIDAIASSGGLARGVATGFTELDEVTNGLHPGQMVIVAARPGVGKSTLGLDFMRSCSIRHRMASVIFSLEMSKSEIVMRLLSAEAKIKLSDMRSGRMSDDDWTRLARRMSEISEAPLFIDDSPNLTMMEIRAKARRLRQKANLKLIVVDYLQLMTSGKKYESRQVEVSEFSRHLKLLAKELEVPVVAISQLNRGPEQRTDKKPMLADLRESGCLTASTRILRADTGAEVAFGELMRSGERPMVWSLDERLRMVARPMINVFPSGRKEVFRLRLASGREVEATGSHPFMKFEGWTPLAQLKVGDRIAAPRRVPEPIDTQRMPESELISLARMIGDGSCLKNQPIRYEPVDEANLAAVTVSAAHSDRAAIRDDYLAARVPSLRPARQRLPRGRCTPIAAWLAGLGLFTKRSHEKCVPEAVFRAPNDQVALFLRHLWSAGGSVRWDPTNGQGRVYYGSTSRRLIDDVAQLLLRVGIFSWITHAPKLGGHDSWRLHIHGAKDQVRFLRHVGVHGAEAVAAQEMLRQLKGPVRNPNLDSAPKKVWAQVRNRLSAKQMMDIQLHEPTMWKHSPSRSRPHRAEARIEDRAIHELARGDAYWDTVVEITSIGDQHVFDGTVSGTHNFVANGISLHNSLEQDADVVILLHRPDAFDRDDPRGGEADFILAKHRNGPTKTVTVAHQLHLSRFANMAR", "experiment": "DnaB intein splicing inhibitors, dose response, biochemical, cell-free fluorescence (AID 449749)", "assay_type": "functional"}, "[12]": {"target": "T6, Protein RecA (Mycobacterium tuberculosis, UniProt P9WHJ3)", "T6 sequence (P9WHJ3 whole entry)": "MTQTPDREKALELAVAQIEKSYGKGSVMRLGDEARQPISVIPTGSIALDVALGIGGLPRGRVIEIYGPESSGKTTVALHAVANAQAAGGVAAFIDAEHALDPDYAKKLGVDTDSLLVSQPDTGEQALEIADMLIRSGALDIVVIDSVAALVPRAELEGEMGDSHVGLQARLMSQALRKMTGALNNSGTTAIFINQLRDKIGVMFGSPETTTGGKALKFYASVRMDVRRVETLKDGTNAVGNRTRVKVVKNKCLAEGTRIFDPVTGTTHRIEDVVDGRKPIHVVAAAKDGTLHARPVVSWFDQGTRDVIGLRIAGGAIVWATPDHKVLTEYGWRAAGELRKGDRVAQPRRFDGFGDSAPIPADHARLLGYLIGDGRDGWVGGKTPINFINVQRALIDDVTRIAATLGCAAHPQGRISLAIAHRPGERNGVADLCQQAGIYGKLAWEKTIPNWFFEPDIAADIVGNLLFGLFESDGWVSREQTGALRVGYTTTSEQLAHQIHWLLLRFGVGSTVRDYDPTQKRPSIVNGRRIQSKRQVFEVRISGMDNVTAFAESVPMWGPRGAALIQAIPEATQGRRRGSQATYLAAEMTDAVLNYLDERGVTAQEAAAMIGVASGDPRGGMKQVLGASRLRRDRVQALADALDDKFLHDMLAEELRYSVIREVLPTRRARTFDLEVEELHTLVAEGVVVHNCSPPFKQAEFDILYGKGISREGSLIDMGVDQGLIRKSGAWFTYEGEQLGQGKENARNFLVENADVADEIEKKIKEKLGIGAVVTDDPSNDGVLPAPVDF", "experiment": "Fluorescence Cell-Free Homogeneous Dose Retest to Identify Inhibitors of RecA-Intein Splicing Activity. [Related pubchem assays (depositor defined):AID2097, AID2223, AID489010, AID492950]", "assay_type": "functional"}, "[13]": {"target": "Genome polyprotein (dengue virus type 2, UniProt P29990)", "sequence (P29990 2492-3391 limits assumed)": "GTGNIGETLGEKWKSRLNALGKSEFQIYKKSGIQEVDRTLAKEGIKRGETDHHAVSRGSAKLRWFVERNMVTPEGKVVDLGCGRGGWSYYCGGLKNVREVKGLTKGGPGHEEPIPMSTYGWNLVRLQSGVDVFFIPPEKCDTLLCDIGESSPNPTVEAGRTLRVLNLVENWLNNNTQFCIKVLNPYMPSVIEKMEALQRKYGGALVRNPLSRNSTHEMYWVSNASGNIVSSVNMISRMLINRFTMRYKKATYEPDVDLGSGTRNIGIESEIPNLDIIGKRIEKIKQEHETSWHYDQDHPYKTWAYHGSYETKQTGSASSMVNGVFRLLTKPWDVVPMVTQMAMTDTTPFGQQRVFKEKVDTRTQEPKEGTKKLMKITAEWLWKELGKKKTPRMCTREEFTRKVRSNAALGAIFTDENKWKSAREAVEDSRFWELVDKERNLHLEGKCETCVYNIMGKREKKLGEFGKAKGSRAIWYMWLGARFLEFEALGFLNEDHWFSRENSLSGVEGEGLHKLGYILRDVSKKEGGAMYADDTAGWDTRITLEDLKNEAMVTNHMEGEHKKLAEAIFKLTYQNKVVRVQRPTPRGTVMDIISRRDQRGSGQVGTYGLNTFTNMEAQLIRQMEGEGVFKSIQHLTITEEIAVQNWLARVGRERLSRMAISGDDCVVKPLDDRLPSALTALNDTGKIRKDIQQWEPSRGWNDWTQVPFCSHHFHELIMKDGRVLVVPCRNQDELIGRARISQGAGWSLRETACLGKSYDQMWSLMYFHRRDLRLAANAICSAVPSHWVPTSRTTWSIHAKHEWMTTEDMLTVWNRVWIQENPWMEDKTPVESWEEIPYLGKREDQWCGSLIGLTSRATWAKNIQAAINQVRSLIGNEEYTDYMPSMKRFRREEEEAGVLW", "experiment": "flavivirus cap methylation enzyme inhibition – biochemical, confirmation dose response, primary screen (AID 588689)", "assay_type": "functional"}, "[14]": {"target": "Voltage-gated inwardly rectifying potassium channel KCNH2 (Homo sapiens, UniProt Q12809)", "sequence (Q12809 whole entry)": "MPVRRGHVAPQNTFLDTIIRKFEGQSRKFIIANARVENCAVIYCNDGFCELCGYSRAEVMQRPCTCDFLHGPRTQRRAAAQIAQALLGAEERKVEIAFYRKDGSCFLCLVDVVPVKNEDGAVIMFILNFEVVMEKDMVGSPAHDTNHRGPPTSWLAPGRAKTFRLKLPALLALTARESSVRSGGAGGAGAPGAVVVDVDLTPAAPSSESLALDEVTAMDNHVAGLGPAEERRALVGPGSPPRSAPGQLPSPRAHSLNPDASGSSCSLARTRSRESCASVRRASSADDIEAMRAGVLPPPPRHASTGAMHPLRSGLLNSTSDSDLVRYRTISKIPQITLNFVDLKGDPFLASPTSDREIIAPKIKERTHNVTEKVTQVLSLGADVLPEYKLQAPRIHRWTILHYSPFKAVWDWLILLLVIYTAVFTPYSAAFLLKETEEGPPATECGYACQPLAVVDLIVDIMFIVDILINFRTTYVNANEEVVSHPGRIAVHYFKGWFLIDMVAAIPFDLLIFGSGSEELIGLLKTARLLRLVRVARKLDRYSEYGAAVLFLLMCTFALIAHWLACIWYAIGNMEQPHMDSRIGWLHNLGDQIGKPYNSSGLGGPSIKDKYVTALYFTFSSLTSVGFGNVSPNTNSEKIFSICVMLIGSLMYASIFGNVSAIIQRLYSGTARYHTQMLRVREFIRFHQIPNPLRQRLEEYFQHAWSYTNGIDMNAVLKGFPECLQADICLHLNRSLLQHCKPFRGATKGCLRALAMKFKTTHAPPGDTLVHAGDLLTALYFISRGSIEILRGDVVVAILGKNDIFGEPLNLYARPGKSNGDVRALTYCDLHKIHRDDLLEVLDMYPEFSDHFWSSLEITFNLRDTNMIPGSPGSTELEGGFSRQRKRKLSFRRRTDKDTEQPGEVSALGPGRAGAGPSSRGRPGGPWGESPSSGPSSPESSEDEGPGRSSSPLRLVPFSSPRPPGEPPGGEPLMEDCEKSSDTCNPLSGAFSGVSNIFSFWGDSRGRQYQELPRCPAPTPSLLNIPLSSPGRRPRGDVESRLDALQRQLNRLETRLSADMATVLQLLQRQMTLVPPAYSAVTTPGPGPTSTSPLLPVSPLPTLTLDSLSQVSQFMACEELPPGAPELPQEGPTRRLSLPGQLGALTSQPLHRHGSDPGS", "experiment": "concentration-dependent hERG rescue from blockers – cell-based, thallium flux, dose response (AID 2121)", "assay_type": "ADME"}}, "note": "Active and inactive are the calls of the source.", "data": [{"smiles": "CCCCCCCCCCCCC/C=C\\[C@H](O)[C@H](N)CO", "values": [{"measurement": "AC50", "setting": "[1]", "value": "12.6 µM (inconclusive)"}]}, {"smiles": "O=C1C(Cl)=C(N2CCN(CCO)CC2)C(=O)N1c1ccc(Cl)c(Cl)c1", "values": [{"measurement": "IC50", "setting": "[2]", "value": "> 100 µM (not active)"}, {"measurement": "IC50", "setting": "[3]", "value": "0.59 µM (active)"}, {"measurement": "IC50", "setting": "[4]", "value": "0.556 µM (active)"}]}, {"smiles": "O=C1CN(S(=O)(=O)c2ccc(F)cc2)CC(=O)N1CCc1ccccc1", "values": [{"measurement": "EC50", "setting": "[5]", "value": "6.15 µM (active)"}, {"measurement": "EC50", "setting": "[6]", "value": "> 29.9 µM (not active)"}]}, {"smiles": "c1ccc2c(C[n+]3csc4ccccc43)cccc2c1", "values": [{"measurement": "EC50", "setting": "[7]", "value": "0.898 µM (active)"}, {"measurement": "EC50", "setting": "[5]", "value": "> 29.9 µM (not active)"}, {"measurement": "EC50", "setting": "[8]", "value": "22.3 µM (active)"}, {"measurement": "EC50", "setting": "[6]", "value": "> 29.9 µM (not active)"}]}, {"smiles": "O=C(Nc1ccc(-c2nc3ccccc3o2)cc1)c1ccc(N2C(=O)C3C4C=CC(C4)C3C2=O)cc1", "note": "(stereo not given)", "values": [{"measurement": "IC50", "setting": "[9]", "value": "5.35 µM (active)"}, {"measurement": "IC50", "setting": "[10]", "value": "> 111 µM (not active)"}]}, {"smiles": "O=C1C(Cl)=C(N2CCOCC2)C(=O)N1c1ccccc1Cl", "values": [{"measurement": "IC50", "setting": "[2]", "value": "> 10 µM (inconclusive)"}, {"measurement": "IC50", "setting": "[3]", "value": "5.83 µM (active)"}, {"measurement": "IC50", "setting": "[4]", "value": "> 100 µM (not active)"}, {"measurement": "AC50", "setting": "[11]", "value": "5.28 µM (active)"}, {"measurement": "EC50", "setting": "[12]", "value": "2.09 µM (active)"}, {"measurement": "IC50", "setting": "[13]", "value": "23.3 µM (active)"}]}, {"smiles": "CCOC(=O)Cc1csc(NC(=S)NC(=O)C(C)(C)C)n1", "values": [{"measurement": "EC50", "setting": "[14]", "value": "2.51 µM (active)"}]}, {"smiles": "CC1CN(C(=S)NC(=O)c2ccc(Cl)cc2)CC(C)O1", "note": "(stereo not given)", "values": [{"measurement": "EC50", "setting": "[14]", "value": "5.66 µM (active)"}]}]}
